In article PMC7377239, “Cardiovascular Effects of Polychlorinated Biphenyls and Their Major Metabolites” (Environmental Health Perspectives, 2020):
Like-named read-outs stand apart in the source and are kept apart here.

Key:
[1] = tested on: iCell endothelial cells (human iPSC-derived ECs); assay: High-content imaging cytotoxicity in iCell endothelial cells, 24 h; type: cell-based; settings: Homo sapiens, Endothelial cell, iPSC-EC, 24 hr; for viability at 0.1 µM / activity at 0.1 µM: 0.10 µM; for minimal effective concentration: top concentration 100.00 µM
Protocol: (§1) The culture conditions of iCell®-endothelial cells were as reported elsewhere ([Iwata et al. 2017]). Briefly, T75 flasks were coated with a fibronectin solution ( 3 μg/cm^2 ) followed by incubation for 1–2 h. Cells were thawed for 3 min in a 37°C water bath. Thawed cells were added to maintenance medium made of VascuLife VEGF Medium Complete Kit, excluding the supplied FBS, and iCell® Endothelial Cells Medium Supplement. The final formulation of the maintenance medium is detailed in ([Iwata et al. 2017]). The aliquoted fibronectin solution was aspirated from the T75 flasks, and cells were seeded at 1.0×10^4 cells/cm^2 . Cells were maintained at 37°C and 5% CO2 with media changes occurring every 2 d and passaged every 3–4 d using TrypLE™ Express. All experiments were conducted on cells between passages 1 and 5.
Cytotoxicity was assessed in parallel experiments. For iCell®-endothelial cells, 384-well plates were coated with a 30μg/mL fibronectin solution ( 10μL/well ) and incubated for 2 h at RT. iCell®-endothelial cells were dissociated with TrypLE™ Express and prepared into a solution to achieve 750 cells per well and 50μL of total volume. The fibronectin solution was removed from the 384-well plate, and cells were plated. For HUVECs, similar dissociation and the same cell density were used for plating with the exclusion of the fibronectin solution. Cells were incubated at 37°C and 5% CO2 until a monolayer was formed, typically 3–5 d. 2×PCB plates were created with the requisite maintenance medium. Before treatment, the medium in the wells was exchanged to 25μL/well of fresh maintenance medium. 2×PCB chemical solutions ( […] ) were added. After 24 h incubation at 37°C and 5% CO2 , cells were stained with Hoechst 33342, MitoTracker™ Orange, and calcein AM for 20 min before replacing the staining media with FluoroBright DMEM. Cell culture plates were imaged using the ImageXpress® Micro Confocal high-content imaging system (Molecular Devices). Images were acquired at 10× magnification with DAPI, TRITC, or FITC filter (Hoechst 33342, MitoTracker™, or calcein AM, respectively). The multiwavelength cell scoring applications module in MetaXpress™ (Molecular Devices) was used to analyze the images.
(§2) Phenotypic responses were quantitatively assessed using concentration–response modeling as detailed elsewhere ([Sirenko et al. 2017]). Briefly, phenotypic readouts were normalized to vehicle controls and fit to a four-parameter logistic model in R studio software (version 3.1.1; R Development Core Team). Following EPA guidance on dose–response modeling, a cutoff of one standard deviation across means of vehicle control (i.e., 0.5% vol/vol DMSO in cell culture media) wells was applied to determine the point-of-departure (POD) values ([U.S. EPA 2012]). In the absence of a concentration–response, the highest tested concentration (i.e., 100μM ) was assigned as “no observable adverse effect level.” The concentration–response assessment R script, as well as templates for vehicle and concentration–response data, are available as a supplement to Sirenko et al. ([2017]). The ability of physicochemical properties to predict differences in PODs were evaluated by multiregression and mixed-effects modeling using R.

[2] = tested on: iCell endothelial cells (human iPSC-derived ECs); assay: Tube formation (tubulogenesis) assay in iCell endothelial cells, 18 h; type: cell-based; settings: Homo sapiens, Endothelial cell, iPSC-EC tube formation, 18 hr; for activity at 0.1 µM: 0.10 µM; for minimal effective concentration: top concentration 100.00 µM
Protocol: as §1
Tube formation assays were performed on Geltrex™ LDEV-free reduced growth factor basement membrane using both iCell®-endothelial cells and HUVECs in 384-well format exactly as detailed in Iwata et al. ([2017]). Negative controls included media-only and vehicle control (i.e., 0.5% vol/vol DMSO in cell culture media) wells. Positive assay controls were consistent with previously published reports ([Iwata et al. 2017]) and included TAB ( 50μM ) as a cytotoxic control, and nocodazole ( 0.01–1μM ), suramin ( 0.5–50μM ), histamine ( 0.1–100μM ), and chloroquine ( 1–500μM ) as chemicals associated with specific effects on ECs. Each test chemical was screened in triplicate for each concentration. Briefly, for iCell®-endothelial cells, starvation media consisted of VascuLife® basal medium with 4 mM L-glutamine LifeFactor and 0.1% iCell®-endothelial cells medium supplement. To counter dilution effects, a 2× concentration of the HUVEC maintenance medium supplemented with additional VEGF was created (EGM™-2 BulletKits™ at 2× concentration; also the VEGF component was replaced with 12.5 ng/mL VEGF). Geltrex™ LDEV-free reduced growth factor basement membrane was thawed overnight and dispensed into 384-well plates ( 10μL/well ) with tapping and rotating to evenly coat. The plates were incubated for 1 h in a cell culture incubator at 37°C and 5% CO2 . A 2× PCB plate (containing all of the PCBs and metabolites in dose–response) was prepared in basal media and added, 25μL per well, to the Geltrex™ coated plates. On separate plates, cells were seeded 7,500 (iPSC- ECs) or 3,500 (HUVEC) cells/well. Cells were exposed to chemicals overnight at 37°C and 5% CO2 and stained with 3× concentration of calcein AM ( 25μL /well, 6μmol/L ) for 15 min before imaging. Images were captured at 4× magnification with the FITC filter (calcein AM). Images were analyzed with the angiogenesis module software within MetaXpress™ (Molecular Devices).
as §2

[3] = 0.00 µM control = 100.00, read-out: endo.cyto.24hr
[4] = 0.00 µM control = 100.00, read-out: endo.mito.24hr
[5] = 0.00 µM control = 100.00, read-out: endo.mitoint.24hr
[6] = 0.00 µM control = 100.00, read-out: endo.nma.24hr
[7] = 0.00 µM control = 100.00, read-out: endo.tc.24hrs
[8] = 0.00 µM control = 100.00, read-out: endo.mtl.18hr
[9] = 0.00 µM control = 100.00, read-out: endo.tlps.18hr
[10] = 0.00 µM control = 100.00, read-out: endo.tta.18hr
[11] = 0.00 µM control = 100.00, read-out: endo.ttl.18hr

## Oc1ccc(O)c(-c2ccc(Cl)cc2)c1 [2',5'-DiOH PCB3]
[1]; [3]
  viability at 0.01 µM: 90.8%
  viability at 0.1 µM: 93.4%
  viability at 1 µM: 99.2%
  viability at 10 µM: 86.5%
  viability at 100 µM: 12.2%
[1]; [4]
  activity at 0.01 µM: 91.1%
  activity at 0.1 µM: 94%
  activity at 1 µM: 99.2%
  activity at 10 µM: 86.6%
  activity at 100 µM: 2.34%
[1]; [5]
  activity at 0.01 µM: 127%
  activity at 0.1 µM: 109%
  activity at 1 µM: 104%
  activity at 10 µM: 108%
  activity at 100 µM: 28.7%
[1]; [6]
  activity at 0.01 µM: 103%
  activity at 0.1 µM: 101%
  activity at 1 µM: 98.6%
  activity at 10 µM: 101%
  activity at 100 µM: 184%
[1]; [7]
  viability at 0.01 µM: 90.8%
  viability at 0.1 µM: 93.5%
  viability at 1 µM: 99.2%
  viability at 10 µM: 86.5%
  viability at 100 µM: 17%
[1]; read-out: endo.cyto.24hr POD
  minimal effective concentration: 6.71 µM
[1]; read-out: endo.mito.24hr POD
  minimal effective concentration: 6.71 µM
[1]; read-out: endo.mitoint.24hr POD
  minimal effective concentration: 44.6 µM
[1]; read-out: endo.nma.24hr POD
  minimal effective concentration: 13.7 µM
[1]; read-out: endo.tc.24hrs POD
  minimal effective concentration: 5.78 µM
[2]; [8]
  activity at 0.01 µM: 99.4%
  activity at 0.1 µM: 104%
  activity at 1 µM: 62%
  activity at 10 µM: 61.7%
  activity at 100 µM: 58.4%
[2]; [9]
  activity at 0.01 µM: 100%
  activity at 0.1 µM: 103%
  activity at 1 µM: 66.5%
  activity at 10 µM: 30.6%
  activity at 100 µM: 7.76%
[2]; [10]
  activity at 0.01 µM: 127%
  activity at 0.1 µM: 104%
  activity at 1 µM: 60.7%
  activity at 10 µM: 64.9%
  activity at 100 µM: 0.41%
[2]; [11]
  activity at 0.01 µM: 115%
  activity at 0.1 µM: 98.5%
  activity at 1 µM: 55%
  activity at 10 µM: 63%
  activity at 100 µM: 0.74%
[2]; read-out: endo.mtl.18hr POD
  minimal effective concentration: 0.47 µM
[2]; read-out: endo.tlps.18hr POD
  minimal effective concentration: 0.53 µM
[2]; read-out: endo.tta.18hr POD
  minimal effective concentration: 1.63 µM
[2]; read-out: endo.ttl.18hr POD
  minimal effective concentration: 1.51 µM
